Results reported in patent US20250074970A1, “METHOD OF PURIFYING IMMUNOGLOBULIN G AND USES THEREOF” (CSL Behring AG, priority 2021, published 2025).

Test system: Vesicular stomatitis virus (VSV)
Type: cell-based
Details: 30 mM final concentration of OG at 5° C., VSV spiked CRP

CCCCCCCCO[C@@H]1O[C@H](CO)[C@@H](O)[C@H](O)[C@H]1O [OG, N-Octyl-β-D-Glucopyranoside]
log 10 reduction factor (LRF): ≥ 5.3
